Our source for the IC50 values is ChEMBL document CHEMBL4406902, “Structure-based analysis and biological characterization of imatinib derivatives reveal insights towards the inhibition of wild-type BCR-ABL and its mutants” (Bioorg Med Chem Lett, 2019).

Test [1] can be described thus: Inhibition of BCR/Abl P230 mutant (unknown origin) transfected in mouse Ba/F3 cells assessed as inhibition of cell proliferation measured after 72 hrs by CellTiter-Glo luminescent cell viability assay. Type of test: cell-based. As to conditions: BaF3, 72 h. Background: ATP-based viability assays read luminescence as a measure of living cells.
The nature of test [2]: Inhibition of BCR/Abl P190 mutant (unknown origin) transfected in mouse Ba/F3 cells assessed as inhibition of cell proliferation measured after 72 hrs by CellTiter-Glo luminescent cell viability assay. Type of test: cell-based. As to conditions: BaF3, 72 h.

A word on the IC50: it is the concentration that gives 50% inhibition. On to `Cc1ncc(NC(=O)c2ccc(CN3CCN(C)CC3)c(C(F)(F)F)c2)cc1Nc1nccc(-c2cccnc2)n1` [FLUMATINIB], for which the half-maximal inhibitory concentration (IC50) in test [1] is 10.3 nM; in test [2], 13.3 nM.
As to `Cc1ccc(NC(=O)c2ccc(CN3CCN(C)CC3)cc2)cc1Nc1nccc(-c2cccnc2)n1` [IMATINIB], the values for the IC50 in test [1] and in test [2] were 222 nM and 346 nM, respectively.
The corresponding values for `Cc1cn(-c2cc(NC(=O)c3ccc(C)c(Nc4nccc(-c5cccnc5)n4)c3)cc(C(F)(F)F)c2)cn1` [NILOTINIB] are 19 nM and 23.2 nM.
